Data taken from patent publication EP0340198B1, “Immunoassay for the detection of alpha-haloacetamides” (priority 1988, dated 1989).

How the values were obtained:
[1] = tested on: antibodies toward amidochlor; test: inhibition ELISA for amidochlor; format: binding, rabbits; details: standard solutions at 10 and 50 ppb in DI water
Text: (§1) The generation of antibodies toward butachlor (2-chloro-2′,6′-diethyl-N-(butoxymethyl)acetanilide), amidochlor (2-chloro-2′,6′-diethyl-N-acetamidomethyl acetanilide), and metolachlor (2-chloro-2′-ethyl-6′-methyl-N-(2-methoxy-1-methylethyl)acetanilide) were accomplished following identical procedures as those described for alachlor. The individual 14C-labeled chloroacetanilide was covalently bound to HSA (human serum albumin) with AHT, and to sheep IgG with AMSA.
(§2) The hapten-IgG conjugates were used to immunize rabbits. The corresponding hapten-BSA conjugates were then utilized in checkerboard assays to determine the presence of desired antibodies in the antisera. An inhibition ELISA for butachlor was set up with antiserum, butachlor-HSA screening antigen, and butachlor. Similar assays were also set up for amidochlor and metolachlor.
(§3) The sensitivity of the inhibition ELISA for butachlor, amidochlor, and metolachlor was tested with respective standards prepared in DI water. Using the best antiserum, the butachlor ELISA produced an IC50 of 8 ppb.
(§4) The specificity of the ELISA for butachlor, amidochlor, and metolachlor were tested using standard solutions of alachlor, acetochlor, butachlor, amidochlor, metolachlor, and propachlor at concentrations of 10 and 50 ppb in DI water. At these concentrations, the ELISA assay for butachlor, amidochlor, and metolachlor was each inhibited only by the respective free hapten, and not by any of the other chloroacetanilides.

[2] = tested on: antibodies toward metolachlor; test: inhibition ELISA for metolachlor; format: binding, rabbits; details: standard solutions at 10 and 50 ppb in DI water
Text: as §1, §2, §3, §4

alachlor antibodies = test: inhibition ELISA for alachlor (cross-reactivity studies); format: binding, rabbit; details: for reaction (cross-reactivity) with the antibodies, in words: relative to alachlor; for ELISA % Absorbance MEAN (n = 20): antisera from bleed seven
Description: Immunoassays. A known "checkerboard assay" was initially conducted with each serum sample after the first boost to detect the production of antibodies against alachlor. […] The next 7 rows received the subsequent dilutions of the screening antigen. The plate was covered with Parafilm and stored overnight at 4°C. The next morning, the unbound screening antigen was removed from the wells by washing three times with phosphate buffered saline solution (0.01 M phosphate buffer of pH 7.4, 0.15 M NaCl; PBS). The remaining active sites in the wells were blocked with PBS-8% non-fat dry milk solution, (NFDM, 0.3 mL) for 1 hr at 22°C. Serum, which had been stored at -20°C, was freshly thawed and serially diluted (one to two) from 1,000 to 64,000-fold using PBS-T (PBS containing 0.02% Tween 20). Starting with the most concentrated solution, 0.1 mL of the serum solution was pipetted into all 8 wells of column 1; the remaining columns received the subsequent dilutions of the serum solution. The plate was covered and incubated at 22°C for 1.5 hrs. Following triplicate washes of the wells with PBS-T, each of the wells received 0.1 mL of goat anti-rabbit gamma-globulin conjugated to horseradish peroxidase (GAR-HRP) freshly thawed and diluted 4,000 fold with PBS-1% NFDM. After a final wash cycle (4 times) with PBS-T, freshly prepared O-phenylene diamine (PDA) substrate solution (0.2 mL, 0.04 mg/mL PDA and 0.01% H₂O₂ in 0.05 M citric acid and 0.15 M sodium dibasic phosphate, pH 5.0) was dispensed into each of the wells and incubated in the dark at 22°C for 30-60 min. Sulfuric acid (4 N, 50 µL) was added to each of the wells to stop the reaction, and the final absorbances of the wells (490 nm) were recorded.
The inhibition ELISA required one additional step in the assay procedure described above. Equal volumes of the diluted serum and aqueous alachlor standard or unknown sample were mixed and preincubated at 22°C for 1 hr. This mixture (0.1 mL/well) was then analyzed in 6 replicate wells on the plate. The presence of free alachlor inhibited the binding of the antibody to the alachlor-BSA conjugate, resulting in an inhibition of the development of absorbance at 490 nm. The amount of free alachlor was indirectly proportional to the intensity of color developed. Levels of alachlor in unknown water samples were calculated based on the alachlor standards on the same plate. Alachlor standards (0, 0.2, 0.5, 1.0, 3.0, 5.0, and 8.0 ppb in deionized water) were stored at -20°C in 1-mL portions, and were freshly thawed for each assay.
Data Calculations. The lay-out of a typical 96-well microtiter plate is 8 rows of 12 columns in an inhibition ELISA assay for alachlor. The first 6 wells in the first column of wells were not coated with the screening antigen and served as the background wells. The first 6 wells in the remaining 7 columns of wells were reserved for the seven alachlor standards (0 to 8 ppb) listed above. The remaining wells in all 8 rows were used for the samples. The uncorrected absorbances of the wells determined by the Bio-tek reader were used in the following calculations. The median was calculated for the 6 replicate background wells and was then subtracted from the medians of the standards and samples. All the median values were divided by the median of the standard without alachlor (0 ppb) to generate percentages of absorbances. The percent absorbance of the alachlor standards was then plotted on the Y axis against the logarithm (base 10) of the actual concentrations of alachlor on the X axis. A hyperbolic curve was drawn through the standards, and the resulting standard curve was used to calculate the concentrations of alachlor in the unknown samples.
The calculations described above were usually carried out using a computer program.

Compound | inhibition of the ELISA assay for amidochlor [1] | inhibition of the ELISA assay for metolachlor [2] | percent cross-reactivity (alachlor antibodies; bleed four) [%] | cross-reactivity in the subsequent bleeds (alachlor antibodies; bleeds after bleed four) | reaction (cross-reactivity) with the antibodies, in words (alachlor antibodies) | ELISA % Absorbance MEAN (n = 20) (alachlor antibodies; Alachlor Conc. 0.2 ppb) [%] | ELISA % Absorbance MEAN (n = 20) (alachlor antibodies; Alachlor Conc. 0.5 ppb) [%] | ELISA % Absorbance MEAN (n = 20) (alachlor antibodies; Alachlor Conc. 1.0 ppb) [%] | ELISA % Absorbance MEAN (n = 20) (alachlor antibodies; Alachlor Conc. 3.0 ppb) [%] | ELISA % Absorbance MEAN (n = 20) (alachlor antibodies; Alachlor Conc. 5.0 ppb) [%] | ELISA % Absorbance MEAN (n = 20) (alachlor antibodies; Alachlor Conc. 8.0 ppb) [%] | percent cross-reactivity (alachlor antibodies; IC50 of alachlor divided by IC50 of analog x 100, bleed not stated) [%]
CCOCN(C(=O)CCl)c1c(C)cccc1CC [Acetochlor, acetochlor] | not | not | 10 | decreased slightly | little to no interaction | – | – | – | – | – | – | –
CCc1cccc(CC)c1N(COC)C(=O)CCl [Alachlor, α-chloro-2′,6′-diethyl-N-methoxymethyl acetanilide] | not | not | – | – | – | 78.1 | 55.3 | 37.4 | 22.9 | 17.7 | 11.3 | 100
CC(C)N(C(=O)CCl)c1ccccc1 [Propachlor, propachlor] | not | not | – | – | little to no interaction | – | – | – | – | – | – | –
